Laboratory results from publication PMC4913735, “Non‐glycosidic compounds can stimulate both human and mouse iNKT cells” (European Journal of Immunology, 2016).

What was measured:
[1] = tested on: EG7 cells (OVA‐expressing EL4); assay: Injection of OVA plus iNKT‐cell agonist in EG7 tumor‐bearing mice; assay type: in vivo; conditions: 1 μg lipid i.v. with OVA, 4 days after EG7 s.c.; for OVA‐specific CD8+ T cells in blood (tetramer) in tumor‐bearing mice: bled 7 days later
Experimental: To test the functional consequences of iNKT‐cell‐induced DC maturation (Fig. 1E and Supporting Information Fig. 1) and to assess whether iNKT‐cell activation mediated by the injection of either ThrCer 6 or ThrCer 7 could lead to cross‐presentation of peptides derived from soluble antigenic proteins, mice were injected with the tumor cell line EL4 encoding the full‐length OVA and then 4 days later were immunized i.v. with full‐length OVA together with 1 μg of non‐glycosidic iNKT‐cell agonists. As a control, mice were injected with α‐GalCer with full‐length OVA. Seven days later, OVA‐specific CD8^+ T‐cells were detected in the blood by H‐2 K^b/OVA257–264 tetramer staining of CD8^+ T cells.
Figure 4 Injection of ThrCer 6 with OVA into tumor‐bearing mice results in tumor regression. Mice (n = 4–6) were injected s.c. with OVA‐expressing EL4 cells (EG7 cells). Four days later mice were injected i.v. with OVA protein together with either vehicle or 1 μg of the indicated iNKT‐cell agonist. (A) Seven days later mice were bled and the number of H‐2K^b 257‐264 tetramer^+ cells was assessed by FACS analysis. (B) The size of the tumor was subsequently measured regularly using calipers and expressed as surface area. The arrow indicates the timing of the injection of soluble OVA plus iNKT‐cell agonists. (A and B) Data are shown as mean ± SEM and are representative of two independent experiments.
Mice (n = 4–6) were injected subcutaneously (s.c.) with 1 × 10^6 EG7 cells (a derivative of the thymoma EL4, expressing the OVA protein). Four days later mice were injected i.v. with 800 μg OVA together with either vehicle or 1 μg of the indicated iNKT‐cell agonist. Seven days later mice were bled and the number of H‐2K^b 257–264 tetramer^+ cells was assessed by FACS analysis. The size of the tumor was subsequently measured regularly using calipers and expressed as surface area.

human iNKT cells = assay: Human iNKT‐cell activation by lipid‐pulsed hCD1d C1R cells, IFN‐γ ELISA; assay type: cell-based; conditions: compared with α‐GalCer; particularly below 1 ng/mL
Experimental: To this end, hCD1d‐expressing C1R cells were loaded overnight with serial dilutions of lipids (α‐GalCer, ThrCer, ThrCer 6, and ThrCer 7) and then incubated with human iNKT cells. iNKT‐cell activation was assessed by measuring IFN‐γ production in the supernatant by ELISA.
Concentrations of murine IFN‐γ and IL‐4 in serum were determined using standard sandwich ELISAs using the R4‐6A2 capture Ab for IFN‐γ (eBioscience), and the ID11 capture Ab for IL‐4 (Endogen). Biotinylated XMG1.2 (eBioscience) was used as the detection Ab for IFN‐γ and biotinylated BVD6‐24G2 (eBioscience) was used as the detection Ab for IL‐4. Human IFN‐γ in supernatants was determined using the capture Ab NIB42 (BD Pharmingen) and biotinylated 4S.B3 (BD Pharmingen) as the detection Ab.
Human iNKT‐cells were expanded as described previously 34. […] The presence of IFN‐γ was detected in supernatants by ELISA 12. […] DC maturation was determined by the upregulation of CD86 by flow cytometry on a FACSCalibur with CellQuest software (BD) and analyzed with FlowJo software (Tree Star). For in vivo murine APC phenotype analysis the expression of CD86 or CD40 on CD11c^+ APCs from spleen were determined after 18 h post i.v. of 1 μg lipids on a CyAn cytometer and analyzed with FlowJo software (Tree Star).

[2] = molecular target: murine Vα14/Vβ8 iNKT‐cell TCR (Mus musculus, UniProt P11609+Z9CWY5XBV8); assay: SPR binding of soluble murine iNKT‐cell TCR to mCD1d/lipid complexes; conditions: for Kd: SPR equilibrium binding, mCD1d loaded with lipid, read-out: K d, murine iNKT‐cell TCR binding to mCD1d/lipid complex
Sequence of murine Vα14/Vβ8 iNKT‐cell TCR (P11609 whole entry, looked up, other chains not shown): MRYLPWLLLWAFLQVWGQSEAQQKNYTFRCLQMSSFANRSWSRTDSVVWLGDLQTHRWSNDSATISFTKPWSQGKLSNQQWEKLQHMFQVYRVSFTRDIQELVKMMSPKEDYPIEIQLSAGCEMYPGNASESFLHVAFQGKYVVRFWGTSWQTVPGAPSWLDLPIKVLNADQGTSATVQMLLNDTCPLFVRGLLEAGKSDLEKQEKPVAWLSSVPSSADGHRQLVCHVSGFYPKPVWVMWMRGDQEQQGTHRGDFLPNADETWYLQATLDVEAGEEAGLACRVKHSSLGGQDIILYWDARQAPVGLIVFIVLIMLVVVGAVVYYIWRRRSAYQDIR
Excerpt: In order to extend the analysis of the ability of ThrCer analogs to activate iNKT‐cells in vivo, we assessed their ability to promote a response in a murine model. First, we performed binding assays using in vitro‐loaded murine recombinant CD1d (mCD1d) molecules and in vitro‐refolded murine Vα14/Vβ8 iNKT‐cell TCR.
(§1) Soluble human invariant TCR was generated as previously described 34 where both the Vα24 and Vβ11 chains were individually overexpressed in Escherichia coli, purified from the inclusion bodies, then refolded, and purified to generate the TCR heterodimers, according to Boulter et al. 43. The murine TCR was generated according to Pellici et al. as a chimeric molecule (with variable murine regions and human constant regions) 44. The hybrid alpha chains and beta chains were individually expressed in E. coli and purified from the inclusion bodies, then refolded as above.
(§2) SPR experiments were performed with a BIAcore 3000 to measure the affinity and kinetics of iNKT‐cell TCR binding to human CD1d–ligand complexes. In brief, approximately 1000 RU of the biotinylated hCD1d–lipid complexes were immobilized onto streptavidin‐coated CM5 sensor chips (BIAcore). Aliquots of purified TCR with increasing concentrations were passed over immobilized hCD1d–lipid complex at a flow rate of 10 μL/min for the equilibrium‐binding experiments or 50 μL/min for the kinetics experiments. The dissociation constants, K d, were calculated by fitting the data from the equilibrium‐binding experiment to a non‐linear regression saturation binding model (GraphPad Prism 5.0), whereas the k off data were estimated from the kinetics experiments by fitting the data with the built‐in models of the BIAeval3.1 software (BIAcore).

human iNKT‐cell TCR = human iNKT‐cell TCR (Homo sapiens, UniProt A0A0B4J240+P15813); assay: SPR (BIAcore) binding of soluble human iNKT‐cell TCR to hCD1d/lipid complexes; conditions: for Kd: SPR equilibrium binding, hCD1d refolded with lipid, read-out: K d, human iNKT‐cell TCR binding to hCD1d/lipid complex; for koff: SPR kinetics experiment, read-out: k off, human iNKT‐cell TCR from hCD1d/lipid complex
Sequence of human iNKT‐cell TCR (P01848 1-93): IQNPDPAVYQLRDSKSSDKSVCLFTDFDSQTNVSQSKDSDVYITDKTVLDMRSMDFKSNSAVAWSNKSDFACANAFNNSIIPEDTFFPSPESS
Sequence of human iNKT‐cell TCR (P61769 21-119, further chain): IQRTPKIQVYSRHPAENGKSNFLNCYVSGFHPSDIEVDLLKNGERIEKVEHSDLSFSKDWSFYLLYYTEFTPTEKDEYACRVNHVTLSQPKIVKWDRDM
Sequence of human iNKT‐cell TCR (A0A0B4J240 22-114): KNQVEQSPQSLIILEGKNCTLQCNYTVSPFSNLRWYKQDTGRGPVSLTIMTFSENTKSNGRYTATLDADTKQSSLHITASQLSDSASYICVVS
Sequence of human iNKT‐cell TCR (P01850 1-129, further chain): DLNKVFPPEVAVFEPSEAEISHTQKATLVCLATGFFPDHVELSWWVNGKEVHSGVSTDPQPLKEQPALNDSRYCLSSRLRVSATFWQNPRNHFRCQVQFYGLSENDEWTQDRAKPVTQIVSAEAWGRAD
Sequence of human iNKT‐cell TCR (P15813 20-301): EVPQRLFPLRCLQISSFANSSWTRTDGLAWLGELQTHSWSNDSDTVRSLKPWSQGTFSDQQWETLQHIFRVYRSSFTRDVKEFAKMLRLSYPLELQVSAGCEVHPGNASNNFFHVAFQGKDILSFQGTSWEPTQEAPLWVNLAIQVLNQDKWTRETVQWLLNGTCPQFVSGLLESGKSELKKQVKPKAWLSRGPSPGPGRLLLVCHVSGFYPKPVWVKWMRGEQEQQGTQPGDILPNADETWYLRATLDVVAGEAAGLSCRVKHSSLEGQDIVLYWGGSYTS
Experimental: Two analogs of ThrCer, ThrCer 6, and ThrCer 7 were synthesized. […] We first carried out measurements to assess the binding affinity of these ThrCer analogs to human iNKT‐cell TCR (Fig. 1B). Recombinant human CD1d (hCD1d) molecules were refolded in vitro with ThrCer 6 and ThrCer 7 separately and coupled to BIAcore chips, over which refolded human iNKT‐cell TCR was injected at different concentrations 34. […] Importantly, these findings were consistent with data obtained using tetrameric human iNKT‐cell TCRs as a staining reagent to identify lipid/CD1d complexes on the surface of C1R cells that had been transfected with hCD1d cDNA (hCD1d C1R cells) and subsequently loaded with the different lipids 34 (Fig. 1C).
as §1, §2

Structure (SMILES)	Rejection of OVA‐expressing implanted tumors [1]	OVA‐specific CD8+ T cells in blood (tetramer) in tumor‐bearing mice [1]	Activation of human iNKT cells (IFN‐γ in supernatant) (human iNKT cells)	Koff, murine iNKT‐cell TCR from mCD1d/lipid complex [2]	Kon, murine iNKT‐cell TCR to mCD1d/lipid complex [2]	Kd [2]	Kd (human iNKT‐cell TCR)	koff (human iNKT‐cell TCR)
CCCCCCCCCCCCCCCCCCCCCCCCCC(=O)N[C@@H](CO[C@H]1CC[C@H](O)[C@H](O)[C@H]1O)[C@H](O)[C@H](O)CCCCCCCCCCCCCC [ThrCer 6]	rejected	peptide‐specific response	greater activation of human iNKT cells	0.050 S^-1	3.47 x10^4 M^-1 S^-1	1.44 ± 0.13 µM	0.61 ± 0.1 µM	0.165 s⁻¹
CCCCCCCCCCCCCCCCCCCCCCCCCC(=O)NC(COC1CCCC(O)C(O)C1O)C(O)C(O)CCCCCCCCCCCCCC (stereo not drawn) [ThrCer 7]		peptide‐specific response	greater activation of human iNKT cells	0.214 S^-1	8.39 x10^4 M^-1 S^-1	2.55 ± 0.17 µM	0.76 ± 0.08 µM	0.142 s⁻¹
CCCCCCCCCCCCCCCCCCCCCCCCCC(=O)N[C@@H](CO[C@H]1O[C@H](CO)[C@H](O)[C@H](O)[C@H]1O)[C@H](O)[C@H](O)CCCCCCCCCCCCCC [α‐GalCer, α‐galactosylceramide, reference compound]		peptide‐specific response		0.059 S^-1	3.93 x10^4 M^-1 S^-1	1.5 ± 0.16 µM	1.12 ± 0.13 µM	0.41 s⁻¹
